Experimental data: US11566017B2, “Dihydroquinazolinone compound or pharmacologically acceptable salt, and cell growth inhibitor” (RIKEN, priority 2017, dated 2023)

Experiments:
tankyrase 1 (TNKS1) = target: T1, tankyrase 1 (TNKS1) (Homo sapiens, UniProt O95271); assay: Tankyrase inhibitory activity test (ELISA, auto-poly(ADP-ribosyl)ation), tankyrase 1; assay type: biochemical; conditions: Flag tagged tankyrase 1 (1,024-1,327aa, SAM+PARP); read-out: TNKS1 (inhibitory activity against tankyrase 1, IC50)
T1 construct: tankyrase 1 (1,024-1,327aa, SAM+PARP); made in house; host or cells: cell-free protein expression system
Experimental: (§1) The enzymatic activity of tankyrase 1 and the enzymatic activity of tankyrase 2 were measured by the ELISA method based on assessment of auto-poly(ADP-ribosyl)ation to evaluate the tankyrase inhibitory activity of the compound prepared in each of Examples (test compound) (inhibitory activity against tankyrase 1 (TNKS1) and inhibitory activity against tankyrase 2 (TNKS2)). First, Flag tagged tankyrase 1 (1,024-1,327aa, SAM+PARP) and tankyrase 2 (613-1,116aa, ANK5+SAM+PARP) were synthesized with a cell-free protein expression system, and diluted with a Tris buffer solution (50 mM Tris-HCl (pH 8.0), 150 mM NaCl, 10% glycerol). 50 μL of the diluted tankyrase 1 or tankyrase 2 was added to a plate with an anti-FLAG M2 monoclonal antibody immobilized thereon (Anti-FLAG High-Sensitivity M2-Coated Plate) (Sigma-Aldrich), and the plate was left standing overnight at 4° C. Thereafter, the plate was washed four times with a PBS (PBST) buffer containing 0.1% Triton X-100. For Example 84, the Anti-FLAG High-Sensitivity M2-Coated Plate was replaced by an immunoplate (Thermo Fisher Scientific), tankyrase 1 or tankyrase 2 was immobilized on the immunoplate, and the immunoplate was then blocked with Blocking One (nacalai tesque), then washed with a PBS (PBST) buffer, and used as the following plate.
(§2) Subsequently, the test compound diluted with an assay buffer (50 mM Tris-HCl (pH 8.0), 4 mM MgCl2, 0.2 mM DTT) (DMSO was used as a control) was added to each well of the plate, and the plate was left standing at room temperature for 10 minutes. Thereafter, a biotin-labeled NAD solution (225 μM NAD, 25 μM 6-Biotin-17-NAD (Travigen, Inc.)) was added and mixed as a donor substrate, and the mixture was reacted at 30° C. for 45 minutes. To blank wells was added distilled water instead of the biotin-labeled NAD solution. After the reaction, the plate was washed with a PBST buffer four times. Thereafter, HRP (horseradish peroxidase)-labeled streptavidin (Travigen, Inc.) was diluted with a PBS buffer by 1,000 times, and added to each well, and the mixture was reacted at room temperature for 20 minutes. The plate was washed with a PBST buffer four times, a chemiluminescent substrate solution TACS-Sapphire (Travigen, Inc.) was then added to each well, the mixture was reacted at room temperature for 20 minutes, and the chemiluminescence intensity was measured using a chemiluminescence measuring apparatus. For Example 84, the streptavidin was diluted by 5,000 times, the chemiluminescent substrate solution TACS-Sapphire was replaced by an ELISA POD substrate TMB solution easy (nacalai tesque), the mixture was reacted at room temperature for 30 minutes, and the chemiluminescence intensity was measured using a chemiluminescence measuring apparatus.
(§3) The residual enzymatic activity in the presence of the test compound was determined from the following expression. On the basis of the residual enzymatic activity at each of multiple concentrations of the test compound, the enzyme inhibitory activity was calculated in terms of a 50%-inhibition concentration (IC50 value) using data analysis software Origin (LightStone Corp.). Residual activity (%)={(chemiluminescence intensity with test compound added)−(chemiluminescence intensity of blank)}/{(chemiluminescence intensity of control)−(chemiluminescence intensity of blank)}

tankyrase 2 (TNKS2) = target: T2, tankyrase 2 (TNKS2) (Homo sapiens, UniProt Q9H2K2); assay: Tankyrase inhibitory activity test (ELISA, auto-poly(ADP-ribosyl)ation), tankyrase 2; assay type: biochemical; conditions: Flag tagged tankyrase 2 (613-1,116aa, ANK5+SAM+PARP); read-out: TNKS2 (inhibitory activity against tankyrase 2, IC50)
T2 construct: tankyrase 2 (613-1,116aa, ANK5+SAM+PARP); made in house; host or cells: cell-free protein expression system
Experimental: as §1, §2, §3

[1] = tested on: human colorectal cancer cell line COLO-320DM; assay: Cell proliferation inhibitory activity test (Celltiter-Glo); assay type: cell-based; conditions: COLO-320DM cells, 96 hours
Experimental: The cell proliferation inhibitory activity of the compound, which had been prepared in each of Examples, against the human colorectal cancer cell line COLO-320DM was evaluated by Celltiter-Glo Luminescent Cell Viability Assay (Promega Corporation; G7573). COLO-320DM cells were cultured in RPMI-1640 medium containing 2 mM glutamine (Wako Pure Chemical Industries, Ltd; 189-02025) supplemented with 10% fetal bovine serum. The cultured cells were washed with PBS, and then dissociated with trypsin/EDTA, and a cell solution with 3×10^4 cells/mL was prepared.
Subsequently, the cell solution was seeded in a 96-well microplate (Thermo/Nunc Company; 136101) in an amount of 70 μL per well, and cultured overnight under the condition of 37° C. and 5% CO2. Next day, a test compound solution obtained by diluting the test compound (DMSO solution) with a cell culture medium (final concentration of DMSO was 1%) was added in an amount of 10 μL per well, and the mixture was reacted under the condition of 37° C. and 5% CO2 for 96 hours (a 1% DMSO solution was used as a control). Thereafter, a Celltiter-GloLuminescent Cell Viability Assay reagent (Promega Corporation; G7573) was added in an amount of 80 μL per well, the mixture was stirred with a shaker for 2 minutes while light was blocked with an aluminum foil, and the mixture was incubated at room temperature for 10 minutes.
Thereafter, a luminescence signal was measured with a luminometer (Biotech Company; Synergy). The ratio of cell proliferation in each compound addition group to cell proliferation in a control group containing no test compound solution, where cell proliferation in the control group is 100%, was calculated and the value of a compound concentration necessary for suppressing the amount of residual cells to 50% of that in the control (GI50) was calculated as the cytostatic activity. […] An unevaluated test compound was designated as “NT”.

T1 sequence (O95271 1024-1327): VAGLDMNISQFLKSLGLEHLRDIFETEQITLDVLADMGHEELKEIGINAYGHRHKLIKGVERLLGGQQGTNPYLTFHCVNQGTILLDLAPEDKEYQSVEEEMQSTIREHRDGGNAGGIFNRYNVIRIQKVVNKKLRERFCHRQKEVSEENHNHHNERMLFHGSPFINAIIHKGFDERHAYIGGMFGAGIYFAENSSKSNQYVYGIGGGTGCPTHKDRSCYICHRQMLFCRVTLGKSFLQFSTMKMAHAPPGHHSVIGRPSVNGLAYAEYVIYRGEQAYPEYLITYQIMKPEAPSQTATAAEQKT

| IC50 (tankyrase 1 (TNKS1)) | IC50 (tankyrase 2 (TNKS2)) | GI50 [1] | Compound |
| --- | --- | --- | --- |
| < 5 nM | < 5 nM | 1 to 10 µM | CN1c2ccccc2C(=O)NC1c1c[nH]nc1-c1ccc(OCc2ccccc2)c(F)c1 (stereo not drawn) [Example 45, 2-[3-(3-Fluoro-4-phenylmethoxyphenyl)-1H-pyrazol-4-yl]-1-methyl-2,3-dihydroquinazolin-4-one] |
| < 5 nM | < 5 nM | 1 to 10 µM | CCOc1ccc(-c2n[nH]cc2C2NC(=O)c3ccccc3N2C)cc1 (stereo not drawn) [Example 46, 2-[5-(4-Ethoxyphenyl)-1H-pyrazol-4-yl]-1-methyl-2,3-dihydroquinazolin-4-one] |
| 20 to 50 nM | 5 to 20 nM | ≥ 10 µM | CN1c2ccccc2C(=O)NC1c1c[nH]nc1-c1cc(F)cc(F)c1 (stereo not drawn) [Example 47, 2-[3-(3,5-Difluorophenyl)-1H-pyrazol-4-yl]-1-methyl-2,3-dihydroquinazolin-4-one] |
| 20 to 50 nM | 5 to 20 nM | 1 to 10 µM | CN1c2ccccc2C(=O)NC1c1c[nH]nc1-c1ccc(OC(F)(F)F)cc1 (stereo not drawn) [Example 48, 1-Methyl-2-[3-(4-(trifluoromethoxy)phenyl)-1H-pyrazol-4-yl]-2,3-dihydroquinazolin-4-one] |
| 20 to 50 nM | 5 to 20 nM | ≥ 10 µM | COc1c(F)cc(-c2n[nH]cc2C2NC(=O)c3ccccc3N2C)cc1F (stereo not drawn) [Example 49, 2-[5-(3,5-Difluoro-4-methoxyphenyl)-1H-pyrazol-4-yl]-1-methyl-2,3-dihydroquinazolin-4-one] |
| 5 to 20 nM | 5 to 20 nM | ≥ 10 µM | COc1ccc(-c2[nH]ncc2C2NC(=O)c3cccc(C)c3N2)cc1 (stereo not drawn) [Example 50, 2-[5-(4-Methoxyphenyl)-1H-pyrazol-4-yl]-8-methyl-2,3-dihydro-1H-quinazolin-4-one] |
| 20 to 50 nM | 20 to 50 nM | 1 to 10 µM | Cc1cccc2c1NC(c1cn[nH]c1-c1ccc(-c3ccc(N4CCN(C)CC4)cc3)cc1)NC2=O (stereo not drawn) [Example 51, 8-Methyl-2-[5-[4-[4-(4-methylpiperazin-1-yl)phenyl]phenyl]-1H-pyrazol-4-yl]-2,3-dihydro-1H-quinazolin-4-one] |
| < 5 nM | 5 to 20 nM | ≥ 10 µM | COc1ccc(-c2n[nH]cc2C2NC(=O)c3cccc4c3N2CC4)cc1 (stereo not drawn) [Example 52, 11-[5-(4-Methoxyphenyl)-1H-pyrazol-4-yl]-1,10-diazatricyclo[6.3.1.0^4,12]dodeca-4(12),5,7-trien-9-one] |
| 5 to 20 nM | 5 to 20 nM | ≥ 10 µM | COc1ccc(-c2n[nH]cc2C2NC(=O)c3ccc(C)cc3N2C)cc1 (stereo not drawn) [Example 53, 2-[5-(4-Methoxyphenyl)-1H-pyrazol-4-yl]-1,7-dimethyl-2,3-dihydroquinazolin-4-one] |
| 5 to 20 nM | < 5 nM | 1 to 10 µM | Cc1cccc2c1NC(c1c[nH]nc1-c1ccc(OCC(F)(F)F)cc1)NC2=O (stereo not drawn) [Example 54, 8-Methyl-2-[3-(4-(2,2,2-trifluoroethoxy)phenyl)-1H-pyrazol-4-yl]-2,3-dihydro-1H-quinazolin-4-one] |
| 5 to 20 nM | < 5 nM | 1 to 10 µM | CCOc1ccc(-c2n[nH]cc2C2NC(=O)c3cccc(C)c3N2)cc1 (stereo not drawn) [Example 55, 2-[5-(4-Ethoxyphenyl)-1H-pyrazol-4-yl]-8-methyl-2,3-dihydro-1H-quinazolin-4-one] |
| 5 to 20 nM | 5 to 20 nM | ≥ 10 µM | COc1ccc(-c2n[nH]cc2C2NC(=O)c3cccc(C)c3N2)cc1F (stereo not drawn) [Example 56, 2-[5-(3-Fluoro-4-methoxyphenyl)-1H-pyrazol-4-yl]-8-methyl-2,3-dihydro-1H-quinazolin-4-one] |
| 5 to 20 nM | < 5 nM | 1 to 10 µM | CCc1cccc2c1NC(c1c[nH]nc1-c1ccc(OC)cc1)NC2=O (stereo not drawn) [Example 57, 8-Ethyl-2-[3-(4-methoxyphenyl)-1H-pyrazol-4-yl]-2,3-dihydro-1H-quinazolin-4-one] |
| 5 to 20 nM | < 5 nM | 1 to 10 µM | COc1ccc(-c2n[nH]nc2C2NC(=O)c3ccccc3N2C)cc1 (stereo not drawn) [Example 58, 2-[5-(4-Methoxyphenyl)-2H-1,2,3-triazol-4-yl]-1-methyl-2,3-dihydroquinazolin-4-one] |
| 20 to 50 nM | < 5 nM | 1 to 10 µM | COc1ccc(-c2n[nH]nc2C2NC(=O)c3ccccc3N2)cc1 (stereo not drawn) [Example 59, 2-[5-(4-Methoxyphenyl)-2H-1,2,3-triazol-4-yl]-2,3-dihydro-1H-quinazolin-4-one] |
| 5 to 20 nM | 5 to 20 nM | 1 to 10 µM | CN1c2ccccc2C(=O)NC1c1n[nH]nc1-c1ccc(Br)cc1 (stereo not drawn) [Example 60, 2-[4-(4-Bromophenyl)-2H-1,2,3-triazol-5-yl]-1-methyl-2,3-dihydroquinazolin-4-one] |
| 5 to 20 nM | 5 to 20 nM | ≥ 10 µM | CN1CCN(c2ccc(-c3cccc(-c4n[nH]nc4C4NC(=O)c5ccccc5N4C)c3)cc2)CC1 (stereo not drawn) [Example 61, 1-Methyl-2-[5-[3-[4-(4-methylpiperazin-1-yl)phenyl]phenyl]-2H-1,2,3-triazol-4-yl]-2,3-dihydroquinazolin-4-one] |
| 5 to 20 nM | 5 to 20 nM | ≥ 10 µM | CN1c2ccccc2C(=O)NC1c1n[nH]nc1-c1cccc(-c2ccc(N3CCOCC3)cc2)c1 (stereo not drawn) [Example 62, 1-Methyl-2-[4-[3-(4-morpholin-4-ylphenyl)phenyl]-2H-1,2,3-triazol-5-yl]-2,3-dihydroquinazolin-4-one] |
| 5 to 20 nM | 5 to 20 nM | 1 to 10 µM | CCOc1ccc(-c2n[nH]nc2C2NC(=O)c3ccccc3N2C)cc1 (stereo not drawn) [Example 63, 2-[5-(4-Ethoxyphenyl)-2H-1,2,3-triazol-4-yl]-1-methyl-2,3-dihydroquinazolin-4-one] |
| 20 to 50 nM | 5 to 20 nM | ≥ 10 µM | CN1c2ccccc2C(=O)NC1c1n[nH]nc1-c1ccc(OCC(F)(F)F)cc1 (stereo not drawn) [Example 64, 1-Methyl-2-[4-[4-(2,2,2-trifluoroethoxy)phenyl]-2H-1,2,3-triazol-5-yl]-2,3-dihydroquinazolin-4-one] |
| 5 to 20 nM | < 5 nM | ≥ 10 µM | Cc1cccc2c1NC(c1n[nH]nc1-c1ccc(Br)cc1)NC2=O (stereo not drawn) [Example 66, 2-[4-(4-Bromophenyl)-2H-1,2,3-triazol-5-yl]-8-methyl-2,3-dihydro-1H-quinazolin-4-one] |
